This assay addresses T1, human CGRP receptor heterodimer (Homo sapiens, UniProt O60894+Q16602).
T1 construct: Human SK-N-MC neuroblastoma cells, endogenously expressing the human CGRP receptor, are expanded in culture flasks; host or cells: P2 membranes of SK-N-MC neuroblastoma cells
Description: Competition filtration binding with [3H]BIBN-4096 on SK-N-MC cell membranes. The settings on record: [3H]BIBN-4096 130 pM, mean. From the text: The equilibrium affinity constant (Ki) at the human CGRP receptor heterodimer may be determined using standard competition filtration binding methods with membranes prepared from cultured SK-N-MC neuroblastoma cells (ATCC) and a high-affinity CGRP receptor antagonist.
Membrane Production: Human SK-N-MC neuroblastoma cells, endogenously expressing the human CGRP receptor, are expanded in culture flasks (Corning, T225) using growth media containing Eagles's Minimum Essential Media (HyClone™) supplemented with 10% heat-inactivated fetal bovine serum (GIBCO®). When cell monolayers achieve a level of 70-80% confluence, they are dissociated from the culture flasks using TrypLE™ cell dissociation media (ThermoFisher Scientific). Dissociated cells are pelleted by centrifugation at 300×g to remove the growth and dissociation media. Centrifuged cell pellets are flash frozen in liquid nitrogen (−320° F.) for 30 sec and stored frozen at −80° C. until the subsequent membrane preparation.
A membrane preparation P2 pellet (second pellet from centrifugation procedure) is generated from harvested SK-N-MC frozen cultured cell pellets by diluting these cells on ice into 20 mM Tris-HCl buffer, pH 7.4, containing protease inhibitors (Pierce). Suspended cells are Dounce homogenized on ice and centrifuged at low speed (1000×g for 20 min at 4° C.) to remove cellular organelles and debris (P1 pellet). The supernatant, containing the soluble membrane fraction, is collected and subjected to a high speed centrifugation step (25,000×g for 1 hr at 4° C.) to isolate the resultant P2 membrane pellet. […] Protein concentration is determined using the Bradford Protein Assay (ThermoFisher Scientific). […]
Data Analysis: Bound radioactivity may be counted using a MicroBeta® Trilux Scintillation Counter (PerkinElmer®). […] Relative IC50 values are calculated using a four-parameter logistic curve fitting program (GraphPad Prism v8.3.0). Equilibrium dissociation binding constants (Ki) for the compounds are calculated from the following equation: […]

`Cc1cc(N2CCC2)cc(OCc2ccc([C@@H](C)[C@@]3(C)C(=O)NC[C@@H]3CF)cc2)n1` [Example 1, (3R,4R)-3-[(1R)-1-[4-[[4-(azetidin-1-yl)-6-methyl-2-pyridyl]oxymethyl]phenyl]ethyl]-4-(fluoromethyl)-3-methyl-pyrrolidin-2-one]: the Ki (commonly the equilibrium dissociation constant of an inhibitor or competing ligand from its target) is 350 pM.
With `Cc1cc(N2CC(F)C2)cc(OCc2ccc([C@@H](C)[C@@]3(C)C(=O)NC[C@@H]3C)cc2)n1` [Example 2, (3R,4R)-3-[(1R)-1-[4-[[4-(3-fluoroazetidin-1-yl)-6-methyl-2-pyridyl]oxymethyl]phenyl]ethyl]-3,4-dimethyl-pyrrolidin-2-one] the figure was 980 pM; with `Cc1cc(N2CC(F)C2)cc(OCc2ccc([C@@H](C)[C@@]3(C)C(=O)NC[C@@H]3CF)cc2)n1` [Example 3, (3R,4R)-3-[(1R)-1-[4-[[4-(3-fluoroazetidin-1-yl)-6-methyl-2-pyridyl]oxymethyl]phenyl]ethyl]-4-(fluoromethyl)-3-methyl-pyrrolidin-2-one], 930 pM.
